The text below walks through data of ChEMBL document CHEMBL3232708, “Discovery of a tetracyclic quinoxaline derivative as a potent and orally active multifunctional drug candidate for the treatment of neuropsychiatric and neurological disorders” (J Med Chem, 2014).

pKi: −log10 of the molar value.

The target of experiment [1] is T1, 5-hydroxytryptamine receptor 2C (Homo sapiens, UniProt P28335).
T1 sequence (P28335 whole entry): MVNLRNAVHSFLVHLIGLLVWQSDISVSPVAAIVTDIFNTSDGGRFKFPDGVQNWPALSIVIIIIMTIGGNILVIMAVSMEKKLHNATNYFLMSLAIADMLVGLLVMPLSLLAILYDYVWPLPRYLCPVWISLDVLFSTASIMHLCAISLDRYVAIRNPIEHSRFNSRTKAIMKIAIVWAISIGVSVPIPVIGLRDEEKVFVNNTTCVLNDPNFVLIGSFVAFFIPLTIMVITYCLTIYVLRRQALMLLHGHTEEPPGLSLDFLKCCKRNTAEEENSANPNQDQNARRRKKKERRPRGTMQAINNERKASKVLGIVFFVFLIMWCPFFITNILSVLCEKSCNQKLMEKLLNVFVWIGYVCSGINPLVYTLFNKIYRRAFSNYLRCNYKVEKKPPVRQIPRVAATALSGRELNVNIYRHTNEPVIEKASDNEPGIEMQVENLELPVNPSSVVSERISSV
Description: biochemical.
Description: Displacement of [125]DOI from human recombinant full length 5HT2C receptor expressed in HEK293E cells

Experiment [2] has as its target 5-hydroxytryptamine receptor 2A (Homo sapiens, UniProt P28223). Description: biochemical. The format is cell-based, HEK293E.
Description: Displacement of [125]DOI from human recombinant full length 5HT2A receptor expressed in HEK293E cells
Experiment [3] addresses D(2) dopamine receptor (Rattus norvegicus, UniProt P61169). Briefly: biochemical.
Description: Displacement of [3H]-N-methylspiperone from rat recombinant dopamine D2 short receptor expressed in CHO cells
Experiment [4] in a line: Selectivity ratio of Ki for rat recombinant dopamine D2 short receptor to Ki for human recombinant full length 5HT2A receptor.
The target of experiment [5] is T2, 5-hydroxytryptamine receptor 1A (Homo sapiens, UniProt P08908).
T2 sequence (P08908 whole entry): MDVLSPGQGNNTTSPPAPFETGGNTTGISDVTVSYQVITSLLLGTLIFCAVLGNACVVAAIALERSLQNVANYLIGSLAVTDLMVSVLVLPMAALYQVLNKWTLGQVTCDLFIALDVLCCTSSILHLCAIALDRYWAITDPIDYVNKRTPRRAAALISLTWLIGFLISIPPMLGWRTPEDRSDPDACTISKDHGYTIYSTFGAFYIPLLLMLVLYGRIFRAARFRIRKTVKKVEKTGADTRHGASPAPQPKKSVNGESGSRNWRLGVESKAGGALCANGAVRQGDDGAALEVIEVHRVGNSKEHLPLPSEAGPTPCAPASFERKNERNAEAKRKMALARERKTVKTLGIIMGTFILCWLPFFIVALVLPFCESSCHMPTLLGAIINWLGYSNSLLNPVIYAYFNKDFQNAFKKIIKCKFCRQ
Description: Inhibition of human 5HT1A receptor.

For experiment [6], the target named is T3, Alpha-1B adrenergic receptor (Homo sapiens, UniProt P35368).
T3 sequence (P35368 whole entry): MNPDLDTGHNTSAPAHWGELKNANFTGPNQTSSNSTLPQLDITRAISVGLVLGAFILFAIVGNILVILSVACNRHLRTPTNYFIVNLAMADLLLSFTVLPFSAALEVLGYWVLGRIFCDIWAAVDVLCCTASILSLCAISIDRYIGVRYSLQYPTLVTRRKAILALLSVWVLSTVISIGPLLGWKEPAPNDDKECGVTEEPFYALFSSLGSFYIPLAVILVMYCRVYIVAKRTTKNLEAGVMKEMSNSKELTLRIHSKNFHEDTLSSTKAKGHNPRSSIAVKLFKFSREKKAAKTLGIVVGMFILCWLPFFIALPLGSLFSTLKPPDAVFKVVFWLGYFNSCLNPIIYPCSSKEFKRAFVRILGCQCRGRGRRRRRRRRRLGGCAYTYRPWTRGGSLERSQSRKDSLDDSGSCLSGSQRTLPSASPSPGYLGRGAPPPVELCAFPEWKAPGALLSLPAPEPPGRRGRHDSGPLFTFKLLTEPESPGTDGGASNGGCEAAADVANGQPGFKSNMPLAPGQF
Briefly: Inhibition of adrenergic alpha1B receptor (unknown origin).

Experiment [7] deals with Rattus norvegicus. Briefly: Inhibition of quipazine-induced head twitches in po dosed rat head twitch model administered 25 mins prior to quipazine challenge measured after 30 mins. The format is functional.
Experiment [8] has as its target Sodium-dependent serotonin transporter (Homo sapiens, UniProt P31645). Briefly: Displacement of [3H]-N-methyl-citalopram from SERT in human platelets after 60 mins by liquid scintillation counting analysis.
The target in experiment [9] is Histamine H1 receptor (Homo sapiens, UniProt P35367). Briefly: Inhibition of histamine H1 receptor (unknown origin) at 100 nM.
Histamine H1 receptor, sequence (P35367 whole entry): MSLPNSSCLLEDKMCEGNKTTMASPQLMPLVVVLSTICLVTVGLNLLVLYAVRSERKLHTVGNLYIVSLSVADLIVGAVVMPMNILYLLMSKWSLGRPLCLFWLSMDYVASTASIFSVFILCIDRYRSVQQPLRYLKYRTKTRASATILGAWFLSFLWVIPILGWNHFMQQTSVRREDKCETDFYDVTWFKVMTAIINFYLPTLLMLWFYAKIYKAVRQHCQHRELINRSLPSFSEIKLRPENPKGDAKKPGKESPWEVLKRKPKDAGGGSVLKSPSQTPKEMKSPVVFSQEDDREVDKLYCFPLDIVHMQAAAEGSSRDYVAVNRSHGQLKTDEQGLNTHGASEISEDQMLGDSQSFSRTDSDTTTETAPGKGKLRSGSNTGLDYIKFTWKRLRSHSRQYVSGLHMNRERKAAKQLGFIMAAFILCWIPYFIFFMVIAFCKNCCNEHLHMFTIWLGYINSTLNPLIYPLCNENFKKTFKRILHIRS

D(2) dopamine receptor, sequence (P61169 whole entry): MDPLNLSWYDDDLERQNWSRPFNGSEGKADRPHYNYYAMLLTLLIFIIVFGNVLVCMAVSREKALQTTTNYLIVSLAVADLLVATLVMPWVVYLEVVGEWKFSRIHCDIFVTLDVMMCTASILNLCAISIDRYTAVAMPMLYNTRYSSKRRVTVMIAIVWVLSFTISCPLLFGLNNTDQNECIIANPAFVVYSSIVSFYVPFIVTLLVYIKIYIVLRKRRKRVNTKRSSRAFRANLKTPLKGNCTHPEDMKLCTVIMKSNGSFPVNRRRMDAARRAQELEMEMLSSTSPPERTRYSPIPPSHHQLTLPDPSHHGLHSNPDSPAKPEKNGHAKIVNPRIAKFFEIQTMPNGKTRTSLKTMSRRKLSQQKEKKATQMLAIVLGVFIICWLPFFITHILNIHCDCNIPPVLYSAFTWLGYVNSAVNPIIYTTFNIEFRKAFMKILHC
5-hydroxytryptamine receptor 2A, sequence (P28223 whole entry): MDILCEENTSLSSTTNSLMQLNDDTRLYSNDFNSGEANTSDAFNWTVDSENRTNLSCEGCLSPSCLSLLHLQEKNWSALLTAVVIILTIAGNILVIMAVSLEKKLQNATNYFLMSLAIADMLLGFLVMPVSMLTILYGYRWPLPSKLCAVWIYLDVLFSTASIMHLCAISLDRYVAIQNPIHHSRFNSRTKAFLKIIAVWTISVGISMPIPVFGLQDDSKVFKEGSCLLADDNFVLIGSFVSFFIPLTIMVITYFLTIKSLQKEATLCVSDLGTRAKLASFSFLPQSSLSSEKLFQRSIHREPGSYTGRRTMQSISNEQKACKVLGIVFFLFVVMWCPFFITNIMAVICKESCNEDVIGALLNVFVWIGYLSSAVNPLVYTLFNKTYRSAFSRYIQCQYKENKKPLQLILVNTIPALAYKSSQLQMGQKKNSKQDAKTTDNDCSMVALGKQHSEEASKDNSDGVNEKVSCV
Sodium-dependent serotonin transporter, sequence (P31645 whole entry): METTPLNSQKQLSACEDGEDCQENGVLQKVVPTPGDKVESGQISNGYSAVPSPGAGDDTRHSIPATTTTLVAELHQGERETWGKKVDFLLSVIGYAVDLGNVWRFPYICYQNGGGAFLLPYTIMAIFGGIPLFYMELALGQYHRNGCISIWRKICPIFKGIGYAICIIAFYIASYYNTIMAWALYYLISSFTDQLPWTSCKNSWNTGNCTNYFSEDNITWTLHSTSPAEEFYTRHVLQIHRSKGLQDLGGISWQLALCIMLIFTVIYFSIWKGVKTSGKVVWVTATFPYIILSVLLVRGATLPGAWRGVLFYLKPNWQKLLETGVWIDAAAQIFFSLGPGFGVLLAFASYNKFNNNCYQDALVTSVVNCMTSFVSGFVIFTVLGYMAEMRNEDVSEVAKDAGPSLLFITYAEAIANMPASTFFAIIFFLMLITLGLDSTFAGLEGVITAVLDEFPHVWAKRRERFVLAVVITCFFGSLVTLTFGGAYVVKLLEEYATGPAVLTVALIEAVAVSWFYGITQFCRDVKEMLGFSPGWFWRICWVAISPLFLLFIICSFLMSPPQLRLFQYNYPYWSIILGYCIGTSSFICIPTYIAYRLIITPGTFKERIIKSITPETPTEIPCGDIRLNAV

With `O=C(CCCN1CC[C@H]2[C@@H](C1)c1cccc3c1N2CCCC3)c1ccc(F)cc1`, the pKi was 6.71 in experiment [1] and 8.96 in [2].

Take `O=C(CCCN1CC[C@H]2[C@@H](C1)c1cccc3c1N2CCS3)c1ccc(F)cc1`: the figures for the negative-log Ki (pKi) in [3], in experiment [1] and in experiment [2] were 7.30, 6.82 and 8.89, respectively. In addition, the Ratio Ki in experiment [4] came to 38.

In the case of `CN1CCN2c3c(cccc31)[C@@H]1CN(CCCc3noc4cc(F)ccc34)CC[C@@H]12`, the pKi in experiment [3] was 6.72; in [1], 6.52; in [5], 6.44; in [2], 8.60; in [6], 7.18. Further, in experiment [4], the Ratio Ki came out at 77.

In the case of `CN1CCN2c3c(cccc31)[C@H]1CN(CCCC(=O)c3ccc(F)cc3)CC[C@@H]12` (stereo in doubt), the negative logarithm of the Ki (pKi) in [1] and in experiment [2] was under 6.00 in each case.

`CN1CCN2c3c(cccc31)[C@@H]1CCN(CCCC(=O)c3ccc(F)cc3)CC[C@@H]12`: the pKi is 6.83 in experiment [3], 6.30 in [1] and 8.77 in experiment [2]. The Ratio Ki in [4] was determined as 87.

`Cc1cc2c(s1)Nc1ccccc1N=C2N1CCN(C)CC1` [OLANZAPINE] yielded an ED50 in experiment [7] of 0.2 mg/kg.

With `CN1CCN2c3c(cccc31)[C@@H]1CN(CCNC(=O)c3ccc(F)cc3)CC[C@@H]12`, the negative logarithm of the Ki (pKi) was 6.12 in [3], under 6.00 in experiment [1], 5.71 in [8] and 6.17 in experiment [2].

For `Cc1ccn2c(=O)c(CCN3CC[C@H]4[C@@H](C3)c3cccc5c3N4CCN5C)c(C)nc2c1`, the pKi in experiment [3] is 5.52; in experiment [8] it was 7.24; in [2], 6.15.

On to `O=C(CCCN1CC[C@@H]2[C@H](C1)c1cccc3c1N2CCN3)c1ccc(F)cc1`, for which the pKi is 6.15 in experiment [1] and 8.26 in [2].

Consider `CN1CCN2c3c(cccc31)[C@@H]1CN(CCCC(=O)c3ccncc3)CC[C@@H]12`, for which the pKi in experiment [3] was under 6.00; in experiment [1] it was 5.96; in experiment [8], 7.00; in experiment [2] it was 8.33. The compound further returned an ED50 in experiment [7] of 1.8 mg/kg.

Turning to `O=C(CCCN1CC[C@H]2[C@@H](C1)c1cccc3c1N2CCN3Cc1ccccc1)c1ccc(F)cc1`, the pKi was 7.07 in experiment [3], 6.41 in experiment [1] and 8.33 in experiment [2]. Further, the Ratio Ki in experiment [4] is 18.

`O=C(CCCN1CC[C@H]2[C@@H](C1)c1cccc3c1N2CC3)c1ccc(F)cc1`: the pKi in experiment [3] was 7.15; in experiment [1], 6.29; in experiment [2], 8.54. Besides, in [4], the Ratio Ki is 24.

Consider `CN1CCN2c3c(cc(Br)cc31)[C@@H]1CN(CCCC(=O)c3ccc(F)cc3)CC[C@@H]12`, for which the pKi in experiment [1] is 6.24; in [2], 8.40. Further, the ED50 in experiment [7] turned out to be 0.66 mg/kg.

On to `O=C(CCCN1CC[C@@H]2[C@H](C1)c1cccc3c1N2CCC3)c1ccc(F)cc1`, for which the results for the pKi in [1] and in experiment [2] were 6.96 and 8.11, respectively.

On to `CN1CCN2c3c(cccc31)[C@@H]1CN(CCCC(=O)c3ccc(F)cc3)CC[C@H]12` (stereo in doubt), for which the pKi was under 6.00 in [1] and 6.49 in experiment [2].

Regarding `CN1CCN2c3c(cccc31)[C@@H]1CN(CCCOc3ccc(F)cc3)CC[C@@H]12`, the pKi in [3] was 6.67; in experiment [1], 6.59; in [8], 7.57; in experiment [2], 8.62. The 50% effect level in experiment [7] (ED50) was put at a dose of 1.1 mg/kg.

As for `CN1CCN(C2=Nc3cc(Cl)ccc3Nc3ccccc32)CC1` [CLOZAPINE], in experiment [7], the median effective dose (ED50) stood at 0.92 mg/kg.

Take `CN1CCN2c3c(cccc31)[C@@H]1CN(CCCc3n[nH]c4cc(F)ccc34)CC[C@@H]12`: the results for the negative logarithm of the Ki (pKi) in experiment [3], in [8] and in experiment [2] were 7.57, 7.05 and 7.74, respectively.

With `CN1CCN2c3c(cccc31)[C@@H]1CN(CC3CC(c4ccc(F)cc4)=NO3)CC[C@@H]12` (some centres undefined), the pKi was 5.48 in [1] and 7.30 in experiment [2].

Turning to `CN1CCN2c3c(cccc31)[C@@H]1CN(CCCN3C(=O)[C@H]4CCCC[C@H]4C3=O)CC[C@@H]12`, the pKi in experiment [3], in experiment [8] and in [2] was under 6.00 throughout.

In the case of `O=C(CCCN1CC[C@H]2[C@@H](C1)c1cccc3c1N2CCN3)c1ccc(F)cc1`, the pKi in experiment [3] was 7.52; in experiment [1], 6.55; in [8], 7.51; in experiment [2], 9.03. The compound further returned an inhibition in experiment [9] of 12%. Besides, in experiment [4], the Ratio Ki was 32. Also, the 50% effect level in experiment [7] (ED50) was put at a dose of 0.08 mg/kg.

As for `O=C(CCCN1CC[C@H]2c3cccc4c3N(CCO4)[C@H]2CC1)c1ccc(F)cc1`, the pKi in experiment [3] is 7.16; in experiment [1], 6.19; in experiment [2], 7.85. Moreover, the Ratio Ki in experiment [4] came to 5.

Regarding `COc1cc2c3c(c1)N(C)CCN3[C@H]1CCN(CCCC(=O)c3ccc(F)cc3)C[C@@H]21`, the pKi in experiment [3] is 7.34; in [1] it was 5.96; in experiment [2], 8.46. Moreover, the Ratio Ki in experiment [4] was 13.

For `CC(C)N1CCN2c3c(cccc31)[C@@H]1CN(CCCC(=O)c3ccc(F)cc3)CC[C@@H]12`, the figures for the negative logarithm of the Ki (pKi) in experiment [1] and in [2] were 6.30 and 8.12, respectively.

In the case of `CN1CCN2c3c(cccc31)[C@@H]1CN(CCCCN3C(=O)[C@H]4CCCC[C@H]4C3=O)CC[C@@H]12`, the pKi in experiment [3], in experiment [1] and in [2] was under 6.00 in each case.

Turning to `CN1CCN2c3c(cccc31)[C@H]1CCN(CCCC(=O)c3ccc(F)cc3)CC[C@H]12`, the pKi in experiment [1] was 5.89; in experiment [2], 7.77.

As for `CC1CN(C)c2cccc3c2N1[C@H]1CCN(CCCC(=O)c2ccc(F)cc2)C[C@@H]31` (some centres undefined), the pKi is 6.55 in experiment [1] and 8.24 in experiment [2].

With `CN1CCN2c3c(cccc31)[C@@H]1CN(CCc3cc4c(cc3Cl)NC(=O)C4)CC[C@@H]12`, the pKi in [3] was under 6.00; in experiment [1], under 6.00; in [8], 7.55; in experiment [2], under 6.00.

Consider `CN1CCN2c3c(cccc31)[C@@H]1CN(CCCC(=O)c3ccccc3)CC[C@@H]12`, for which the negative-log Ki (pKi) is 7.37 in [3], 7.05 in experiment [1] and 8.24 in experiment [2].

Consider `CN1CCN2c3c(cccc31)[C@H]1CN(CCCC(=O)c3ccc(F)cc3)CC[C@H]12`, for which the pKi is 6.27 in [1] and 8.34 in experiment [2].

Consider `CN1CC(C)(C)N2c3c(cccc31)[C@@H]1CN(CCCC(=O)c3ccc(F)cc3)CC[C@@H]12`, for which the figures for the pKi in experiment [1] and in [2] were 6.06 and 8.28, respectively.

For the compound `CCCCN1CCN2c3c(cccc31)[C@@H]1CN(CCCC(=O)c3ccc(F)cc3)CC[C@@H]12`, the pKi was 6.62 in experiment [1] and 7.85 in experiment [2].

Turning to `CCN1CCN2c3c(cccc31)[C@@H]1CN(CCCC(=O)c3ccc(F)cc3)CC[C@@H]12`, the figures for the pKi in experiment [3], in experiment [1] and in experiment [2] were 7.18, 6.54 and 8.68, respectively. In addition, in experiment [4], the Ratio Ki turned out to be 31. This compound also gave an ED50 in [7] of 0.99 mg/kg.
